Laboratory results as given in patent publication US9968636B2, “Peritoneal dialysis fluid comprising a GSK-3 inhibitor” (ZYTOPROTEC GMBH, priority 2011, dated 2018).
Entries after “also recorded” stand apart in the source; their conditions may differ.

How the values were obtained:
[1] = system: human Met-5a cell line (mesothelial cells); test: Cell viability by neutral red uptake after PD fluid exposure; details: 10 mM LiCl; low pH glucose-based or icodextrin-based PD fluids; 1 h exposure, 16 h recovery; FIG. 3
Procedure: (§1) The human Met-5a cell line was purchased from American Type Culture Collection (ATCC, Rockville, Md.). All cells were cultured in M199 culture medium supplemented with L-glutamine (0.1 g/L), penicillin (100 U/mL), streptomycin (100 μg/mL), 10% fetal bovine serum (FBS) and propagated at 37° C. in a humidified air containing 5% CO2 incubator. Standard chemicals were purchased from Sigma-Aldrich (St. Louis, Mo., USA) unless otherwise stated. Falcon™ tissue culture plastics (Becton Dickinson, Franklin Lakes, N.J., USA) were used for all cell culture procedures.
(§2) PDF exposure model: confluent cultures on 12-well plates were exposed for the indicated times (30 min or 1 h) to the PD fluid solution or kept in parallel in control medium. For HSF-1 activity assay, cells were harvested and lysed immediately after exposure times, whereas for measurements of LDH and HSP-72, p-GSK-3β Western blot analysis, cells were allowed to recover by incubation with normal culture medium containing 10% FBS for 16 h.
To assess cell viability by neutral red uptake, cells were seeded out to 96-well plates and exposed to different treatment protocols as described before. Neutral red uptake was measured using a standard reagent (Sigma-Aldrich, St. Louis, Mo., USA) according to the manufacturer's protocol.

[2] = system: human Met-5a cell line (mesothelial cells); test: LDH release into the supernatant after PD fluid exposure; type: cell-based; details: for LDH levels: icodextrin-based fluid
Procedure: as §1, §2
For LDH analyses, 200 μL aliquots of supernatants were removed after the described experimental setup and kept on −20° C. until analyzed within 48 h. Measurements were performed in duplicates with Sigma TOX-7 LDH Kit according to the manufacturer's instructions. LDH efflux was normalized for protein content.

mesothelial cells = test: Light microscopy and vital-dead (live-dead) staining of mesothelial cells; type: cell-based, human; details: LiCl, low pH glucose-based or icodextrin-based PD fluids, data not shown
Procedure: as §2

[3] = system: Heat shock protein-72 (HSP-72); test: HSP-72 expression by Western blot; type: cell-based, human
Procedure: as §2
For western blotting, protein content is determined by the Bradford assay (Biorad, Vienna, Austria) and equal amounts of protein samples (2 μg/lane) are separated by standard SDS-PAGE using a Pharmacia Multiphore II unit. Size-fractionated proteins are then transferred to PVDF membranes by semi-dry transfer in a Pharmacia Multiphore II Novablot unit. Membranes are blocked in 5% dry milk in TBS-Tween (10 mM Tris, 150 mM NaCl, 0.05% Tween 20, pH 7.4). Membranes are incubated with the respective primary antibody (HSP-72, p-GSK-3β) for 16 h. Detection is accomplished by incubation with secondary, peroxidase-coupled antibodies (anti-mouse or anti-rabbit IgG, both Dako Cytomation, Calif., USA) and enhanced chemiluminescence (ECL) using the ECL western blotting analysis system (Renaissance, NEN-Life Science Products, Boston, Mass., USA).

[4] = system: heat shock factor-1 (HSF-1); test: HSF-1 activity by Luciferase assay (heat shock element reporter); type: cell-based, human; details: 10 mM LiCl; control cells, glucose-based low pH high GDP and low pH icodextrin-based PD fluids; 30 min exposure, 6 h recovery; FIG. 4
Procedure: as §2, with “[…],” for “For HSF-1 activity assay, cells were harvested and lysed immediately after exposure times,”
To determine the specific binding of the heat shock factor-1 (HSF-1), a commercially available Luciferase Reporter Vector (LR0038, Panomics, Italy) containing the heat shock element [5′[…]3′] as well as an empty control vector were transfected into the MeT-5a cells. 24 h prior to transfection, MC were seeded onto 96-well cell culture plates and allowed to reach approximately 80-90% confluence on day of transfection. Before transfection per well 0.15 μl Fugene6 (Roche) transfection reagent and 0.1 μl HSE reporter vector or control vector were each diluted with 5 μl of normal growth medium without FCS and incubated for 5 min. The solutions were mixed incubated for 30 min. Of this mix 10 μl were added to each well incubated for 24 h at 5% CO2 and 37° C. in a humidified atmosphere. […] The luciferase reagent (E1500, Promega) was added using an automatic pipette in 3 s intervals and the yielded signal was measured after 2 min using a luminometer plate reader (Flx800, BioTek).

Structure (SMILES): [Cl-].[Li+] [LiCl, Lithium-chloride]
- number of viable cells (neutral red uptake) [1]: improved cell viability; also recorded: increased number of viable cells
- LDH release (cell injury) ([2]; 10 mM LiCl added, all PD fluids observed, 1 h exposure, 16 h recovery, vs no LiCl, FIG. 2): decreased LDH release; also recorded: attenuated LDH release
- protection (LDH release) ([2]; 10 mM LiCl, incubation with low pH glucose-based and icodextrin-based solutions, FIG. 2): most prominent protection
- LDH levels ([2]; 1 mM LiCl, FIG. 6): did not change significantly
- LDH levels ([2]; 2 mM LiCl, FIG. 6): already decreased
- LDH levels ([2]; 5 mM LiCl, FIG. 6): the decrease was even more significant
- LDH levels ([2]; 10 mM LiCl, FIG. 6): the decrease was even more significant
- LDH release ([2]; low pH glucose-based (PDF) fluid, 10 mM LiCl, FIG. 6): significantly reduced
- release of LDH into the supernatant ([2]; low pH glucose-based (PDF) fluid, LiCl 1 mM to 5 mM, FIG. 6): did not alter
- cell structure (mesothelial cells): preserved cell structure
- rate of dead cells (mesothelial cells; live-dead staining): reduced cell death rate; also recorded: reduced rate of dead cells
- level of HSP-72 ([3]; 10 mM LiCl, each incubation setting (glucose-based or icodextrin-based PD fluid, 30 min or 1 h) vs respective untreated cells, FIG. 5): significantly increased
- HSP-72 expression ([3]; glucose-based low pH PDF, LiCl 1, 2, 5, 10 mM vs untreated cells, 30 min exposure, 16 h recovery, FIG. 8): increased only after administration of either 2 mM or 10 mM LiCl
- HSP-72 protein expression ([3]; icodextrin-based PD fluid, LiCl 1, 2, 5, 10 mM, 30 min exposure, 16 h recovery, FIG. 8): all the applied LiCl doses increased
- HSF-1 transcriptional activity [4]: significantly increased
